Measured values: paper PMC9057582, “HIF inhibitor 32-134D eradicates murine hepatocellular carcinoma in combination with anti-PD1 therapy” (The Journal of Clinical Investigation, 2022)

What was measured:
[1] = tested on: HIF-1α and HIF-2α protein; test: Immunoblot of nuclear extracts of Hep3B cells; assay type: cell-based, human; conditions: 5 μM, 24 hours
Description: Figure 1 Identification of HIF inhibitors. (A) Hep3B-c1 cells were stably transfected with firefly luciferase (FLuc) reporter p2.1, which contains a hypoxia-response element (HRE), and Renilla luciferase (RLuc) reporter pSVR. (B) Hep3B-c1 cells were incubated with vehicle (Veh; 0.1% DMSO; blue bars) or 10 μM 32-134D (red bars) at 20% O2 (n = 6) or 1% O2 (n = 12) for 24 hours. Cell lysates were assayed for Fluc/Rluc activity (mean ± SEM); *P < 0.05 versus vehicle (χ^2 test). (C) Chemical structures and IC50 values for HIF inhibitors. (D and E) Hep3B cells were exposed to 20% O2 with vehicle, or 1% O2 with vehicle (blue bar), 32-134D (red bars), 33-063 (green bars), or PT2385 (brown bars) for 24 hours and CA9 (D) and EPO (E) mRNAs were quantified by RT-qPCR. […] (F) Hep3B cells were exposed to 20% or 1% O2 in the presence of vehicle or 1% O2 in the presence of 5 μM 32-134D (n = 3 each) for 24 hours. RNA sequencing identified genes with hypoxia-induced expression (blue circle) and genes that were inhibited by 32-134D (orange circle), based on FDR < 0.05 and fold change > 1.5. (G) Hep3B cells were exposed to 20% or 1% O2 for 24 hours in the presence of vehicle or 5 μM 32-134D, nuclear extracts were prepared, and immunoblot assays were performed. […]

[2] = tested on: HIF-1, HIF-2 and p300 recruitment to HREs; test: ChIP-qPCR of HRE occupancy in Hep3B cells; assay type: cell-based, human; conditions: 16 hours, 5 µM 32-134D or 10 µM PT2385
Description: Coadministration of the proteasome inhibitor MG-132 blocked the effect of 32-134D on HIF-1α protein levels (Figure 1H). […] Taken together, the results presented in Figure 1 and Supplemental Figures 1–3 indicate that 32-134D induces HIF-α subunit degradation, thereby inhibiting activation of HIF-1 and HIF-2 target gene transcription.
Cells were seeded overnight and then exposed to 20% or 1% O2 in the presence of compound or vehicle for 16 hours. Protein was cross-linked to DNA by addition of 37% formaldehyde to culture medium for 10 minutes at 37°C and quenched by addition of 0.1 M glycine. Cells were washed with and collected in 5 mL of cold PBS containing PIs. Cells were pelleted and resuspended in 200 μL of SDS lysis buffer (50 mM Tris-HCl [pH 8.1], 10 mM EDTA, 1% SDS) containing PIs and incubated on ice for 10 minutes. Lysates were sonicated to produce DNA fragments ranging from 200 to 900 bp and centrifuged for 10 minutes at 4°C. Supernatants were collected and diluted 10-fold with dilution buffer (16.7 mM Tris-HCl [pH 8.1], 167 mM NaCl, 1.2 mM EDTA, 0.01% SDS, 1.1% Triton X-100) with PIs, precleared with 20 μL of salmon sperm DNA/protein A agarose slurry, and a 20-μL aliquot was reserved as input control. Antibody (2 μg; see Supplemental Table 6) was added and samples were rotated overnight at 4°C. Immune complexes were precipitated with 50 μL of salmon sperm DNA/protein A agarose slurry. Pelleted beads were washed serially using low-salt wash buffer (20 mM Tris-HCl [pH 8.1], 150 mM NaCl, 2 mM EDTA, 0.1% SDS, 1% Triton X-100); high-salt wash buffer (20 mM Tris-HCl [pH 8.1], 500 mM NaCl, 2 mM EDTA, 0.1% SDS, 1% Triton X-100); LiCl wash buffer (10 mM Tris-HCl [pH 8.1], 0.25 M LiCl, 1% Nonidet P-40, 1% deoxycholate, 1 mM EDTA); and TE buffer (10 mM Tris-HCl [pH 8.1], 1 mM EDTA). Elution buffer (1% SDS, 0.1 M NaHCO3) was added and eluates were heated at 65°C overnight to reverse cross-linking. Eluates were treated with proteinase K for 1 hour at 45°C and DNA was purified by extraction in phenol/chloroform/isoamyl alcohol (25:24:1, v/v/v) and isopropanol precipitation. […]

Brc1ccc2c(-c3csc(-c4c[nH]c5c(Br)cccc45)n3)c[nH]c2c1 [Compound 32-134D] was tested, and the HIF-1α protein expression [1] was “inhibited”, the “hypoxia-induced recruitment of HIFs and p300 to EPO and ANGPTL4 HREs” value [2] was “impaired” and the “hypoxia-induced recruitment of HIFs and p300 to the CA9 HRE” value [2] was “impaired”.
